Results reported in ChEMBL document CHEMBL4190177 (2016).
Active and inactive are the calls of the source. The rule behind the calls is not given here.

Experiments:
C6 [1] = experiment: Cytotoxicity against rat C6 cells assessed as reduction in cell viability after 72 hrs by MTT assay; assay type: functional, cell-based
U138-MG [2] = experiment: Cytotoxicity against human U138MG cells assessed as reduction in cell viability at 150 uM relative to control; assay type: functional
C6 [3] = experiment: Cytotoxicity against rat C6 cells assessed as reduction in cell viability at 150 uM relative to control; assay type: functional
C6 [4] = experiment: Cytotoxicity against rat C6 cells assessed as reduction in cell viability at 5 uM after 72 hrs by MTT assay relative to control; assay type: functional
C6 [5] = experiment: Cytotoxicity against rat C6 cells assessed as reduction in cell viability at 25 to 50 uM after 72 hrs by MTT assay; assay type: functional, cell-based
U138-MG [6] = experiment: Cytotoxicity against human U138MG cells assessed as reduction in cell viability at 10 uM relative to control; assay type: functional
C6 [7] = experiment: Cytotoxicity against rat C6 cells assessed as reduction in cell viability at 10 uM after 72 hrs by MTT assay relative to control; assay type: functional
C6 [8] = experiment: Cytotoxicity against rat C6 cells assessed as reduction in cell viability at 5 to 50 uM after 72 hrs by MTT assay; assay type: functional, cell-based
C6 [9] = experiment: Cytotoxicity against rat C6 cells assessed as reduction in cell viability at 50 uM after 72 hrs by MTT assay relative to control; assay type: functional

CCCCCCCCCCCCCCCCCCOC(=O)C1=C(C)NC2=C(C(=O)CC(C)(C)C2)C1c1ccc(OC)cc1 (stereo not given)
Activity (C6 [1]): Dose-dependent effect

O=Cc1cccc(O)c1 [3-HYDROXYBENZALDEHYDE]
Activity (U138-MG [2]): 30% | Activity (C6 [3]): 30%

CCCCCCCCCCCCCCCCCCOC(=O)C1=C(C)NC2=C(C(=O)CC(C)(C)C2)C1c1cccc(O)c1 (stereo not given)
Activity (C6 [1]): Dose-dependent effect | Activity (C6 [4]): 40%

CCCCCCCCCCCCCCCCCCOC(=O)C1=C(C)NC2=C(C(=O)CC(C)(C)C2)C1c1cccc([N+](=O)[O-])c1 (stereo not given)
Activity (C6 [1]): Dose-dependent effect | Activity (C6 [5]): inactive

CCCCCCCCCCCCCCCCOC(=O)C1=C(C)NC(=O)NC1c1cccc(O)c1 (stereo not given)
Activity (U138-MG [6]): 50%

CCCCCCCCCCCCCCCCOC(=O)C1=C(C)NC2=C(C(=O)CC(C)(C)C2)C1c1ccccc1 (stereo not given)
Activity (C6 [1]): Dose-dependent effect

CCCCCCCCCCCCCCCCOC(=O)C1=C(C)NC2=C(C(=O)CC(C)(C)C2)C1c1cccc(O)c1 (stereo not given)
Activity (C6 [1]): Dose-dependent effect | Activity (C6 [7]): 40%

CCOC(=O)C1=C(C)NC2=C(C(=O)CC(C)(C)C2)C1c1ccccc1 (stereo not given)
Activity (C6 [8]): Active

CCOC(=O)C1=C(C)NC(=S)NC1c1cccc(O)c1 (stereo not given) [MONASTROL]
Activity (C6 [9]): 50%

CCCCCCCCCCCCCCCCCCOC(=O)C1=C(C)NC2=C(C(=O)CC(C)(C)C2)C1c1cccc(OC)c1 (stereo not given)
Activity (C6 [1]): Dose-dependent effect | Activity (C6 [5]): inactive
